Measured values: ChEMBL document CHEMBL1201862, “PubChem BioAssay data set” (2004)
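Step 1: Grow cells in 96-well plates. Step 2: Expose to compound for 48 hours at 5 concentrations. Step 3: Interpolate endpoints linearly; if unreached, use highest concentration. GI50 = concentration required for 50% inhibition of growth.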 Calls of active or inactive are those of the source. No stated cut-off is given here; in the data, active = GI50 up to about 1.1 µM and inactive = higher.

What was measured:
Experiment in all cases: DTP human tumour cell line panel, 48 h
K562 = tested on: K562
PC-3 = tested on: PC-3
HT-29 = tested on: HT-29
SK-MEL-2 = tested on: SK-MEL-2
HCC 2998 = tested on: HCC 2998
Hs-578T = tested on: Hs-578T
A498 = tested on: A498
IGROV-1 = tested on: IGROV-1
U-251 = tested on: U-251
MDA-MB-231 = tested on: MDA-MB-231
OVCAR-3 = tested on: OVCAR-3
SK-MEL-5 = tested on: SK-MEL-5
HCT-116 = tested on: HCT-116
786-0 = tested on: 786-0
DU-145 = tested on: DU-145
HCT-15 = tested on: HCT-15
NCI-H23 = tested on: NCI-H23
LOX IMVI = tested on: LOX IMVI
KM12 = tested on: KM12
CAKI-1 = tested on: CAKI-1

Measured: GI50

O=C(CCc1ccccc1)NCCc1ccc(O)c(O)c1
31.3 µM: HCT-15
inactive: K562 7.11 µM | PC-3 > 42.1 µM | HT-29 39.7 µM | SK-MEL-2 22 µM | HCC 2998 53.5 µM | Hs-578T > 50.1 µM | A498 78.2 µM | IGROV-1 23.5 µM | U-251 41.2 µM | MDA-MB-231 24.8 µM | OVCAR-3 22.2 µM | SK-MEL-5 16.7 µM | HCT-116 27.7 µM | 786-0 21.5 µM | DU-145 > 63.2 µM | NCI-H23 32.4 µM | LOX IMVI 35.6 µM | KM12 34.8 µM | CAKI-1 4.99 µM

CN1CCN(CC(=O)Nc2cccc3ccccc23)CC1
> 100 µM: HCT-15
inactive: K562 > 100 µM | PC-3 > 100 µM | HT-29 > 31.6 µM | SK-MEL-2 > 100 µM | HCC 2998 > 100 µM | Hs-578T > 100 µM | A498 > 100 µM | IGROV-1 > 100 µM | U-251 > 100 µM | MDA-MB-231 > 100 µM | OVCAR-3 > 100 µM | SK-MEL-5 > 100 µM | HCT-116 > 100 µM | 786-0 > 100 µM | DU-145 > 100 µM | NCI-H23 > 100 µM | LOX IMVI > 100 µM | KM12 > 100 µM | CAKI-1 > 100 µM

COc1cc2cc3c4c(cc(OC)c(OC)c4c2cc1OC)CCN3C
6.84 µM: HCT-15
inactive: K562 6.19 µM | PC-3 3.52 µM | HT-29 6.89 µM | SK-MEL-2 10.3 µM | HCC 2998 7.41 µM | Hs-578T 2.63 µM | A498 6.84 µM | IGROV-1 4.21 µM | U-251 3.58 µM | MDA-MB-231 7.73 µM | OVCAR-3 8.05 µM | SK-MEL-5 6.03 µM | HCT-116 5.96 µM | 786-0 4.29 µM | DU-145 4.97 µM | NCI-H23 12.8 µM | LOX IMVI 5.25 µM | KM12 11 µM | CAKI-1 4.86 µM

C/C(=C\CO)CC[C@@H]1[C@@]2(C)CCCC(C)(C)[C@@H]2CC[C@@]1(C)O
17.3 µM: HCT-15
inactive: K562 16.5 µM | PC-3 16.4 µM | HT-29 21.3 µM | SK-MEL-2 17.6 µM | HCC 2998 16 µM | Hs-578T 24 µM | A498 17 µM | IGROV-1 17 µM | U-251 17.3 µM | MDA-MB-231 17.3 µM | OVCAR-3 13.9 µM | SK-MEL-5 17.9 µM | HCT-116 22 µM | 786-0 20.4 µM | DU-145 18 µM | NCI-H23 20.5 µM | LOX IMVI 16.1 µM | KM12 19.2 µM | CAKI-1 28.6 µM

C[n+]1c(-c2ccccc2)cc2/c(=C\c3ccccc3)c3ccccc3n21
inactive: K562 7.03 µM | HCC 2998 3.84 µM | A498 6.32 µM | OVCAR-3 1.34 µM | HCT-116 1.25 µM | DU-145 2.54 µM | NCI-H23 2.68 µM | LOX IMVI 1.25 µM | CAKI-1 2.94 µM
3.47 µM: HCT-15
active: PC-3 0.918 µM | HT-29 1.06 µM | SK-MEL-2 0.832 µM | Hs-578T 0.116 µM | IGROV-1 1.09 µM | U-251 0.233 µM | MDA-MB-231 0.661 µM | SK-MEL-5 0.667 µM | 786-0 0.906 µM | KM12 0.738 µM

CCOC(=O)c1cc(C(O)P2(=O)N(CC(C)(C)C)[C@@H]3CCCC[C@H]3N2CC(C)(C)C)cn1C(=O)OC(C)(C)C (stereo not given in full)
17.1 µM: HCT-15
inactive: K562 20.1 µM | PC-3 15.9 µM | HT-29 13.8 µM | SK-MEL-2 17.7 µM | HCC 2998 16.2 µM | Hs-578T 16.9 µM | A498 23.9 µM | IGROV-1 4.8 µM | U-251 15.9 µM | MDA-MB-231 16 µM | OVCAR-3 12.3 µM | SK-MEL-5 17.5 µM | HCT-116 11.2 µM | 786-0 15.6 µM | DU-145 16.6 µM | NCI-H23 24.3 µM | LOX IMVI 17.6 µM | KM12 14.8 µM | CAKI-1 14.8 µM

CC1=C(C(=O)Nc2ccccc2C)C(c2ccc(C3C(C(=O)Nc4ccccc4C)=C(C)NC(C)=C3C(=O)Nc3ccccc3C)cc2)C(C(=O)Nc2ccccc2C)=C(C)N1
9.4 µM: HCT-15
inactive: K562 2.87 µM | PC-3 4.39 µM | HT-29 2.03 µM | SK-MEL-2 9.23 µM | HCC 2998 4.51 µM | Hs-578T 14 µM | A498 15.5 µM | IGROV-1 3.16 µM | U-251 2.25 µM | MDA-MB-231 2.29 µM | OVCAR-3 6.67 µM | SK-MEL-5 12.1 µM | HCT-116 2.21 µM | 786-0 3.47 µM | DU-145 15.9 µM | NCI-H23 3.21 µM | LOX IMVI 1.63 µM | KM12 2.16 µM | CAKI-1 7.1 µM

Cc1nc(O)nc(N/N=C/c2ccc(Cl)c(Cl)c2)c1C(=O)Nc1ccc(Cl)c(Cl)c1
11.7 µM: HCT-15
inactive: K562 11.5 µM | PC-3 12.7 µM | HT-29 14.9 µM | SK-MEL-2 17 µM | HCC 2998 > 51.8 µM | Hs-578T 10.5 µM | A498 3.12 µM | IGROV-1 13.8 µM | U-251 6.81 µM | MDA-MB-231 2.44 µM | OVCAR-3 9.62 µM | SK-MEL-5 9.59 µM | HCT-116 6.75 µM | 786-0 10.3 µM | DU-145 12.6 µM | NCI-H23 13.1 µM | LOX IMVI 15.1 µM | KM12 6.49 µM | CAKI-1 17.2 µM

CN(C)CCNc1ccc(NCCN(C)C)c2c1C(=O)c1ncsc1C2=O
inactive: K562 13.6 µM | PC-3 15.3 µM | HT-29 6.46 µM | SK-MEL-2 20.2 µM | HCC 2998 15 µM | Hs-578T 17.7 µM | A498 14.1 µM | IGROV-1 13.5 µM | U-251 14 µM | MDA-MB-231 15.9 µM | OVCAR-3 4.65 µM | SK-MEL-5 15.8 µM | HCT-116 8.18 µM | 786-0 9.1 µM | DU-145 13.2 µM | NCI-H23 15.2 µM | LOX IMVI 8.53 µM | KM12 11.4 µM | CAKI-1 16.9 µM
11.4 µM: HCT-15

Clc1cc2ccccc2c2ccccc12
25.6 µM: HCT-15
inactive: K562 42.1 µM | PC-3 50.2 µM | HT-29 32.4 µM | SK-MEL-2 27.5 µM | HCC 2998 41 µM | Hs-578T 65.6 µM | A498 > 100 µM | IGROV-1 64 µM | U-251 44 µM | MDA-MB-231 > 100 µM | OVCAR-3 52.2 µM | SK-MEL-5 63.2 µM | HCT-116 > 100 µM | 786-0 > 100 µM | DU-145 43 µM | NCI-H23 81.5 µM | LOX IMVI 53.7 µM | KM12 47.9 µM | CAKI-1 42 µM

COc1ccccc1-c1c(C#N)c(N)[nH]c(=S)c1C#N
inactive: K562 14.4 µM | PC-3 32.1 µM | HT-29 65.6 µM | SK-MEL-2 37 µM | HCC 2998 74.3 µM | Hs-578T 30.9 µM | A498 86.1 µM | IGROV-1 92.3 µM | U-251 48.1 µM | MDA-MB-231 47.6 µM | OVCAR-3 56.1 µM | SK-MEL-5 32.1 µM | HCT-116 41.2 µM | 786-0 50.7 µM | DU-145 > 100 µM | NCI-H23 > 100 µM | LOX IMVI 65.2 µM | KM12 62.8 µM | CAKI-1 > 100 µM
> 100 µM: HCT-15

O=C1C=C(O)C(=O)c2c(O)ccc(O)c21
> 100 µM: HCT-15
inactive: K562 > 100 µM | PC-3 > 100 µM | HT-29 51.9 µM | SK-MEL-2 > 100 µM | HCC 2998 > 100 µM | Hs-578T > 100 µM | A498 > 100 µM | IGROV-1 > 100 µM | U-251 > 100 µM | MDA-MB-231 > 100 µM | OVCAR-3 > 100 µM | SK-MEL-5 > 100 µM | HCT-116 > 100 µM | 786-0 > 100 µM | DU-145 > 100 µM | NCI-H23 > 100 µM | LOX IMVI > 100 µM | KM12 > 100 µM | CAKI-1 > 100 µM

C=C1C(=O)OC2/C=C(\C)C(O)CC(O)C(C)(O)CC(OC(=O)/C(C)=C/C)C12 (stereo not given)
inactive: K562 32.6 µM | PC-3 46.1 µM | HT-29 39.6 µM | SK-MEL-2 43.1 µM | HCC 2998 34.9 µM | Hs-578T 44.2 µM | A498 42.2 µM | IGROV-1 31.7 µM | U-251 38.1 µM | MDA-MB-231 49.5 µM | OVCAR-3 44.2 µM | SK-MEL-5 36.7 µM | HCT-116 32.9 µM | 786-0 41.5 µM | DU-145 34.3 µM | NCI-H23 46.9 µM | LOX IMVI 32.3 µM | KM12 29.6 µM | CAKI-1 29 µM
28.4 µM: HCT-15

CC(C)C[C@H](NC(=O)[C@H](Cc1ccccc1)NC(=O)CCc1ccccc1)B(O)O
active: K562 < 0.01 µM | PC-3 < 0.01 µM | HT-29 < 0.01 µM | SK-MEL-2 < 0.01 µM | HCC 2998 < 0.01 µM | Hs-578T < 0.01 µM | A498 < 0.01 µM | IGROV-1 < 0.01 µM | U-251 < 0.01 µM | MDA-MB-231 < 0.01 µM | OVCAR-3 < 0.01 µM | SK-MEL-5 < 0.01 µM | HCT-116 < 0.01 µM | 786-0 < 0.01 µM | DU-145 < 0.01 µM | NCI-H23 < 0.01 µM | LOX IMVI < 0.01 µM | KM12 < 0.01 µM | CAKI-1 < 0.01 µM
< 0.01 µM: HCT-15
